# Results published in US7160685B2, “Diagnostic reagents for human cytomegalovirus and methods of use” (priority 1996, dated 2007).
# Where two headings read alike, the source gives them in different places.
# Tests used:
# HLA A*0202 = HLA A*0202 (Homo sapiens, UniProt P04439, D140Y/D185E/D98H/E176V/E277Q/G131W/G231S/I119L/I121R/I166T/I218V/L180W/L300P/L318F/N151K/N90K/P208A/P217A/Q67R/Q86G/Q94H/R138H/R169H/T345S)
# Experimental: (§1) Twelve cell lines were subjected to chromium release assays in which they were pulsed with the 495 peptide (pp65495-503) nonamer, loaded with chromium-51, and incubated with two different HLA A*0201 restricted CTL which recognize the 495 peptide and HCMV. The specific cytotoxicity was calculated and is shown in tabular form below for the 1 μM and 1 nM concentrations of the 495 peptide.
# HLA A*0204 = HLA A*0204 (Homo sapiens, UniProt P04439, D140Y/D185E/D98H/E176V/E277Q/G131W/G231S/I119V/I121M/I166T/I218V/L300P/L318F/N151K/N90K/P208A/P217A/Q86G/Q94H/R138H/R169H/T345S)
# Experimental: as §1
# HLA A*0205 = HLA A*0205 (Homo sapiens, UniProt P04439, D140Y/D185E/D98H/E176V/E277Q/F33Y/G131W/G231S/I119L/I121R/I166T/I218V/L180W/L300P/L318F/N151K/N90K/P208A/P217A/Q67R/Q86G/Q94H/R138H/R169H/T345S)
# Experimental: as §1
# HLA A*0206 = HLA A*0206 (Homo sapiens, UniProt P04439, D140Y/D185E/D98H/E176V/E277Q/F33Y/G131W/G231S/I119V/I121R/I166T/I218V/L300P/L318F/N151K/N90K/P208A/P217A/Q86G/Q94H/R138H/R169H/T345S)
# Experimental: as §1
# HLA A*0207 = HLA A*0207 (Homo sapiens, UniProt P04439, D140Y/D185E/D98H/E176V/E277Q/G131W/G231S/I119V/I121R/I166T/I218V/L300P/L318F/N151K/N90K/P208A/P217A/Q86G/Q94H/R138H/R169H/T345S/Y123C)
# Experimental: as §1
# HLA A*0209 = HLA A*0209 (Homo sapiens, UniProt P04439, A260E/D140Y/D185E/D98H/E176V/E277Q/G131W/G231S/I119V/I121R/I166T/I218V/L300P/L318F/N151K/N90K/P208A/P217A/Q86G/Q94H/R138H/R169H/T345S)
# Experimental: as §1
# HLA A*0210 = HLA A*0210 (Homo sapiens, UniProt P04439, D140Y/D185E/D98H/E176V/E277Q/F33Y/G231S/I119V/I121R/I166T/I218V/L300P/L318F/N151K/N90K/P208A/P217A/Q86G/Q94H/R138H/R169H/T345S/Y123F)
# Experimental: as §1
# HLA A*0211 = HLA A*0211 (Homo sapiens, UniProt P04439, D140Y/D185E/E176V/E277Q/G131W/G231S/I119V/I121R/I166T/I218V/L300P/L318F/N151K/N90K/P208A/P217A/Q86G/Q94H/R138H/R169H/T345S/T97I)
# Experimental: as §1
# HLA A*0217 = HLA A*0217 (Homo sapiens, UniProt P04439, D140Y/D185E/D98H/E176V/E277Q/G131W/G231S/I119L/I121M/I166T/I218V/L300P/L318F/N151K/N90K/P208A/P217A/Q86G/Q94H/R138H/R169H/T345S/Y123F)
# Experimental: as §1
# 495 peptide targets = conditions: after 14 weeks; 495 peptide + PADRE + IFA
smiles,measurement,setting,value
CSCC[C@H](NC(=O)[C@@H]1CCCN1C(=O)[C@@H](NC(=O)[C@H](CC(C)C)NC(=O)[C@@H](N)CC(N)=O)C(C)C)C(=O)N[C@H](C(=O)N[C@@H](C)C(=O)N[C@H](C(=O)N[C@H](C(=O)O)C(C)C)[C@@H](C)O)C(C)C [SEQ ID NO:1],specific cytotoxicity,"HLA A*0202; A*0202, CTL 3-3F4, 1 nM",− (cytotoxicity less than 15%)
same,specific cytotoxicity,"HLA A*0202; A*0202, CTL 3-3F4, 1 μM",+ (cytotoxicity greater than 30%)
same,specific cytotoxicity,"HLA A*0202; A*0202, CTL VB-57, 1 nM",− (cytotoxicity less than 15%)
same,specific cytotoxicity,"HLA A*0202; A*0202, CTL VB-57, 1 μM",+ (cytotoxicity greater than 30%)
same,specific cytotoxicity,"HLA A*0204; A*0204, CTL 3-3F4, 1 nM",+ (cytotoxicity greater than 30%)
same,specific cytotoxicity,"HLA A*0204; A*0204, CTL 3-3F4, 1 μM",+ (cytotoxicity greater than 30%)
same,specific cytotoxicity,"HLA A*0204; A*0204, CTL VB-57, 1 nM",+ (cytotoxicity greater than 30%)
same,specific cytotoxicity,"HLA A*0204; A*0204, CTL VB-57, 1 μM",+ (cytotoxicity greater than 30%)
same,specific cytotoxicity,"HLA A*0205; A*0205, CTL 3-3F4, 1 nM",− (cytotoxicity less than 15%)
same,specific cytotoxicity,"HLA A*0205; A*0205, CTL 3-3F4, 1 μM",+ (cytotoxicity greater than 30%)
same,specific cytotoxicity,"HLA A*0205; A*0205, CTL VB-57, 1 nM",+ (cytotoxicity greater than 30%)
same,specific cytotoxicity,"HLA A*0205; A*0205, CTL VB-57, 1 μM",+ (cytotoxicity greater than 30%)
same,specific cytotoxicity,"HLA A*0206; A*0206, CTL 3-3F4, 1 nM",+ (cytotoxicity greater than 30%)
same,specific cytotoxicity,"HLA A*0206; A*0206, CTL 3-3F4, 1 μM",+ (cytotoxicity greater than 30%)
same,specific cytotoxicity,"HLA A*0206; A*0206, CTL VB-57, 1 nM",+ (cytotoxicity greater than 30%)
same,specific cytotoxicity,"HLA A*0206; A*0206, CTL VB-57, 1 μM",+ (cytotoxicity greater than 30%)
same,specific cytotoxicity,"HLA A*0207; A*0207, CTL 3-3F4, 1 nM",+ (cytotoxicity greater than 30%)
same,specific cytotoxicity,"HLA A*0207; A*0207, CTL 3-3F4, 1 μM",+ (cytotoxicity greater than 30%)
same,specific cytotoxicity,"HLA A*0207; A*0207, CTL VB-57, 1 nM",+ (cytotoxicity greater than 30%)
same,specific cytotoxicity,"HLA A*0207; A*0207, CTL VB-57, 1 μM",+ (cytotoxicity greater than 30%)
same,specific cytotoxicity,"HLA A*0209; A*0209, CTL 3-3F4, 1 nM",− (cytotoxicity less than 15%)
same,specific cytotoxicity,"HLA A*0209; A*0209, CTL 3-3F4, 1 μM",+ (cytotoxicity greater than 30%)
same,specific cytotoxicity,"HLA A*0209; A*0209, CTL VB-57, 1 nM",− (cytotoxicity less than 15%)
same,specific cytotoxicity,"HLA A*0209; A*0209, CTL VB-57, 1 μM",+ (cytotoxicity greater than 30%)
same,specific cytotoxicity,"HLA A*0210; A*0210, CTL 3-3F4, 1 nM",+ (cytotoxicity greater than 30%)
same,specific cytotoxicity,"HLA A*0210; A*0210, CTL 3-3F4, 1 μM",+ (cytotoxicity greater than 30%)
same,specific cytotoxicity,"HLA A*0210; A*0210, CTL VB-57, 1 nM",+ (cytotoxicity greater than 30%)
same,specific cytotoxicity,"HLA A*0210; A*0210, CTL VB-57, 1 μM",+ (cytotoxicity greater than 30%)
same,specific cytotoxicity,"HLA A*0211; A*0211, CTL 3-3F4, 1 nM",− (cytotoxicity less than 15%)
same,specific cytotoxicity,"HLA A*0211; A*0211, CTL 3-3F4, 1 μM",+ (cytotoxicity greater than 30%)
same,specific cytotoxicity,"HLA A*0211; A*0211, CTL VB-57, 1 μM",+ (cytotoxicity greater than 30%)
same,specific cytotoxicity,"HLA A*0217; A*0217, CTL 3-3F4, 1 nM",− (cytotoxicity less than 15%)
same,specific cytotoxicity,"HLA A*0217; A*0217, CTL 3-3F4, 1 μM",+ (cytotoxicity greater than 30%)
same,specific cytotoxicity,"HLA A*0217; A*0217, CTL VB-57, 1 nM",+ (cytotoxicity greater than 30%)
same,specific cytotoxicity,"HLA A*0217; A*0217, CTL VB-57, 1 μM",+ (cytotoxicity greater than 30%)
same,Percent specific cytotoxicity (cytotoxicity of 495 peptide targets—cytotoxicity of p53 targets),495 peptide targets,40%
